Test results published in patent publication US20100260689A1, “REDUCING SHAVING FREQUENCY” (BEIERSDORF AG, priority 2007, published 2010).

Assay: Cutting force during the shaving of human hair after 24 hours of exposure time (universal test apparatus with cutting force adapter)
Settings: products A-D in artificial sweat solution, five hair fibers cut, 90° cutting angle
Method: The measurements are thereby carried out on a universal test apparatus with cutting force adapter with four friction bearings and recorded by means of TestXpert software.
Five hair fibers were cut for the measurement.
Due to the influence of the cross section of the hair fiber, a preliminary grouping of the hair fibers to be cut is indispensable, which ensures that the products to be compared were carried out on hair fibers with the same cross section so that relative results are obtained.
Five hair fibers fixed on one side are cut with the aid of a commercially available blade (single-blade razor with replaceable blade) at a constant speed. The blade is thereby clamped in an adapter specially produced for this purpose, which ensures a guidance of the blade with the aid of four friction bearings. The determination of the cutting force is carried out by maximum force detection. At the same time, the friction force of the friction bearings is recorded during each measurement.
Measurement parameters: Measurement speed: 100 mm/min • Cutting angle: 90° • Blade grind: approx. 12°
The tested products A-D (see FIG. 1) comprise an artificial sweat solution composed of […]
In a further comparative test, the cutting force on human hair was measured after 24 hours of exposure time of three preparations (FIG. 2). […]

In the case of “Aluminum chlorohydrate [aluminum chlorohydrates]”, the “cutting force during the shaving of human hair” value (FIG. 1) is reported as “reduction of the cutting force” and the “cutting force during the shaving of human hair” value (FIG. 1, listed as ACH) is reported as “cutting force reduction”.
